Results reported in ChEMBL document CHEMBL5291721, “A preclinical secondary pharmacology resource illuminates target-adverse drug reaction associations of marketed drugs” (Nat Commun, 2023).

Columns and labels:
[1] = biological target: Beta-2 adrenergic receptor (Homo sapiens, UniProt P07550)
Histamine H3 receptor [2] = biological target: T1, Histamine H3 receptor (Homo sapiens, UniProt Q9Y5N1)
[3] = biological target: T2, 5-hydroxytryptamine receptor 1A (Homo sapiens, UniProt P08908); format: functional, cell-based
T2 sequence (P08908 whole entry): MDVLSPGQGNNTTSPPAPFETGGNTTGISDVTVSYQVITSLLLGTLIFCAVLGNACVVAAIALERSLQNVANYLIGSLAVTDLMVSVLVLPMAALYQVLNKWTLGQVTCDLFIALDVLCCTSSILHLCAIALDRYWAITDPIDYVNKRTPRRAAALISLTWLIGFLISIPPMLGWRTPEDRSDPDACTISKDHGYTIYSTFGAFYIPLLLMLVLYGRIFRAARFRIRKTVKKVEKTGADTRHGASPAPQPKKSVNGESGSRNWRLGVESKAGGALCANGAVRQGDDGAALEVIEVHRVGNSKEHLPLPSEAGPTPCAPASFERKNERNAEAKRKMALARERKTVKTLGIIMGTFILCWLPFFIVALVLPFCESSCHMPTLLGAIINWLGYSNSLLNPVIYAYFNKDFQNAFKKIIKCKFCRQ

Histamine H3 receptor [4] = biological target: T1, Histamine H3 receptor; remark: listed apart in the source
[5] = biological target: T3, Alpha-2A adrenergic receptor (Homo sapiens, UniProt P08913); format: functional, cell-based
T3 sequence (P08913 whole entry): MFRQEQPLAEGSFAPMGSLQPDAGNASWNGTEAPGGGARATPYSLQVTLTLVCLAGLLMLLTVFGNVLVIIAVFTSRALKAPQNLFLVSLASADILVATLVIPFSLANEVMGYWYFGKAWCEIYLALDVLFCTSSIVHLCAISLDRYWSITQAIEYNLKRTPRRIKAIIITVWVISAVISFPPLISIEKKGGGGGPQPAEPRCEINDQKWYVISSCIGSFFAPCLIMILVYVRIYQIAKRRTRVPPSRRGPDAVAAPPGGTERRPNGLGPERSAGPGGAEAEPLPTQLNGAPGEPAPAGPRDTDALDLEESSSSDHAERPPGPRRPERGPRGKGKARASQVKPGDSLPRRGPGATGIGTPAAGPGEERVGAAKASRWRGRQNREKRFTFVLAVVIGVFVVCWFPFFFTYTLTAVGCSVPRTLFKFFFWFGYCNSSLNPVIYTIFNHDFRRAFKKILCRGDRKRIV

[6] = biological target: cGMP-inhibited 3',5'-cyclic phosphodiesterase 3A (Homo sapiens, UniProt Q14432); format: functional
Melanocortin receptor 4 = Melanocortin receptor 4 (Homo sapiens, UniProt P32245)
[7] = biological target: T2, 5-hydroxytryptamine receptor 1A
[8] = biological target: T4, Alpha-1A adrenergic receptor (Homo sapiens, UniProt P35348); format: functional, cell-based
T4 sequence (P35348 whole entry): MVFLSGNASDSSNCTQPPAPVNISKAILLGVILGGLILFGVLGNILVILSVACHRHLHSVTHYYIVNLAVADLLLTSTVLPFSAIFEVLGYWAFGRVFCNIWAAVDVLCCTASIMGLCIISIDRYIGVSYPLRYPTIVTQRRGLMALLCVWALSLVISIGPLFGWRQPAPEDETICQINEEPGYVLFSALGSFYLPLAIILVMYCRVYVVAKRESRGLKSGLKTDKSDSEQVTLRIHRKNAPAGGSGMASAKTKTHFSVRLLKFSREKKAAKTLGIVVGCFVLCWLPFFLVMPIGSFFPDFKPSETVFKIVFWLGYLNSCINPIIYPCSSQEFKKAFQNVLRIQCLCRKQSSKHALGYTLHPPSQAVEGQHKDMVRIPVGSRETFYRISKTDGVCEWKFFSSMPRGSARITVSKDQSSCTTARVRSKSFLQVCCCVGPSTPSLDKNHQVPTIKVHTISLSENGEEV

[9] = biological target: T4, Alpha-1A adrenergic receptor; format: functional, cell-based; remark: listed apart in the source
Cannabinoid receptor 1 = Cannabinoid receptor 1 (Homo sapiens, UniProt P21554); format: functional, cell-based
Histamine H1 receptor = Histamine H1 receptor (Homo sapiens, UniProt P35367)
D(1A) dopamine receptor [10] = biological target: T5, D(1A) dopamine receptor (Homo sapiens, UniProt P21728); format: functional, cell-based
[11] = biological target: Sodium-dependent noradrenaline transporter (Homo sapiens, UniProt P23975)
[12] = biological target: Sodium-dependent dopamine transporter (Homo sapiens, UniProt Q01959)
[13] = biological target: T6, Muscarinic acetylcholine receptor M2 (Homo sapiens, UniProt P08172)
T6 sequence (P08172 whole entry): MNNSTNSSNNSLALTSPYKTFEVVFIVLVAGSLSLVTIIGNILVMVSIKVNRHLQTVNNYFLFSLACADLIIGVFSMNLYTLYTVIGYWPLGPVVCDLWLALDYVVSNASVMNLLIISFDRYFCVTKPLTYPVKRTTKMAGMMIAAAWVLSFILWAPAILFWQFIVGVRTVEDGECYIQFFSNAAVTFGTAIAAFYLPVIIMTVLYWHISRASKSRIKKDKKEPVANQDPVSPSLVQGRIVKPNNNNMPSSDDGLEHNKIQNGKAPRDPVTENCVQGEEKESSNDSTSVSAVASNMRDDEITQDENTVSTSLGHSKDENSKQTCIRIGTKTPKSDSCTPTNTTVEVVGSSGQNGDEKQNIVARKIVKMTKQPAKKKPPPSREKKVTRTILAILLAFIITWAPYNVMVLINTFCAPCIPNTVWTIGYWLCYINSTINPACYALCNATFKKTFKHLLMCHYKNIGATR

D(1A) dopamine receptor [14] = biological target: T5, D(1A) dopamine receptor
Also: assay procedure not described here.

T5 sequence (P21728 whole entry): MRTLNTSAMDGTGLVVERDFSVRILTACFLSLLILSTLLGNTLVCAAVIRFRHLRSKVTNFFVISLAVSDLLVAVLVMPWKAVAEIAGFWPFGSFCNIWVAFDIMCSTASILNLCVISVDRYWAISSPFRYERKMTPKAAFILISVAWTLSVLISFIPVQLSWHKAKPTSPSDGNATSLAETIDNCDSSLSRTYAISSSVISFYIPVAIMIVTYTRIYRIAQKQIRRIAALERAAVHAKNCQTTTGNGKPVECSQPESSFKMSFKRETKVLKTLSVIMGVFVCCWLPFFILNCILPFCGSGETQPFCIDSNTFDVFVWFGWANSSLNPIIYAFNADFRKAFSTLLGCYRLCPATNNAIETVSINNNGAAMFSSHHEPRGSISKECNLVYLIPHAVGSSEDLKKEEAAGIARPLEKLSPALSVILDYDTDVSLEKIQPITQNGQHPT
T1 sequence (Q9Y5N1 whole entry): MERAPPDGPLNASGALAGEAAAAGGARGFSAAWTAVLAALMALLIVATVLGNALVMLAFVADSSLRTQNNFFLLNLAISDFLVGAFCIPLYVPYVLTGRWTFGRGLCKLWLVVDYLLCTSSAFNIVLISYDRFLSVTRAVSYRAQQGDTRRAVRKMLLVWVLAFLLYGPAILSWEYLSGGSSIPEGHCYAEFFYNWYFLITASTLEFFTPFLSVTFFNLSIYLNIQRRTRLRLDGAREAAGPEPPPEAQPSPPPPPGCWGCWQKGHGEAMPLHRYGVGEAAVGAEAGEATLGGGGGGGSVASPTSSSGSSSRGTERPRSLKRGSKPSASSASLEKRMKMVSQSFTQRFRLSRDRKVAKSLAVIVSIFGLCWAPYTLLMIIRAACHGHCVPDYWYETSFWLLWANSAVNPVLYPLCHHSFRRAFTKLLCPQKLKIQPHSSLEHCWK
Histamine H1 receptor, sequence (P35367 whole entry): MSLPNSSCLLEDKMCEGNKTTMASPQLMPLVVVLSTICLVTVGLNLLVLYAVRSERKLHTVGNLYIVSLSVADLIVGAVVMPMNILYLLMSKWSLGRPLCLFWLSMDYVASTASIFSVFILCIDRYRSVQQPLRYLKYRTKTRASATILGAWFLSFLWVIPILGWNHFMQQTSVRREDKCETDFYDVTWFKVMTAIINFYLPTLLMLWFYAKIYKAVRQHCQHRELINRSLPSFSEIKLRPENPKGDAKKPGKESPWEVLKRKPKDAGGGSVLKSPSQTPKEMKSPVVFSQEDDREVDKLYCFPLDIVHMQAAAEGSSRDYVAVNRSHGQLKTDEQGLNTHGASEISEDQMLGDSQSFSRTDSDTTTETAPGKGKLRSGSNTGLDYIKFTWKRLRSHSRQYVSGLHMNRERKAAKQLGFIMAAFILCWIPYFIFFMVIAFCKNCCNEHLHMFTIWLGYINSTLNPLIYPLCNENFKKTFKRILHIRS
Beta-2 adrenergic receptor, sequence (P07550 whole entry): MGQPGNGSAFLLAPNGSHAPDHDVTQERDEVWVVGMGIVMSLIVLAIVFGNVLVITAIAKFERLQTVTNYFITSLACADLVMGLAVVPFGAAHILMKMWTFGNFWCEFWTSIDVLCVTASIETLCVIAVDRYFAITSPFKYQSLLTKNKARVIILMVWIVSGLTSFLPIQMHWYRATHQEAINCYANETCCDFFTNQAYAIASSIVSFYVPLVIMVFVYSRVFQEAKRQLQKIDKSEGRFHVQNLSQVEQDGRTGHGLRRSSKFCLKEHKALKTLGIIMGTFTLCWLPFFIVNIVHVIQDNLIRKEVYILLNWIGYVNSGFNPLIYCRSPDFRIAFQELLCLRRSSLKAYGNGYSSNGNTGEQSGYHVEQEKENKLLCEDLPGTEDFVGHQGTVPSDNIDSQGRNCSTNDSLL
Cannabinoid receptor 1, sequence (P21554 whole entry): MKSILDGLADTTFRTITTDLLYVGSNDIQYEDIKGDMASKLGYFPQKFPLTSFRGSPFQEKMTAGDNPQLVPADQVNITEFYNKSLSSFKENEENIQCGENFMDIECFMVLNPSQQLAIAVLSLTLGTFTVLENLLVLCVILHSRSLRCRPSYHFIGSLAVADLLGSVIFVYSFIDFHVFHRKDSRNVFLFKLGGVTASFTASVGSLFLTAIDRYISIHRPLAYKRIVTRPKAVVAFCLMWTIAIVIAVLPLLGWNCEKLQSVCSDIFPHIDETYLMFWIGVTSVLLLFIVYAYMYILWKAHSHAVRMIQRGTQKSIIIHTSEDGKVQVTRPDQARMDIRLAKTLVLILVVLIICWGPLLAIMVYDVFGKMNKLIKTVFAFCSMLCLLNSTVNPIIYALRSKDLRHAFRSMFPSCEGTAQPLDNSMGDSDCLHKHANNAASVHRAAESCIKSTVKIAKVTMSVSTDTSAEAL
Melanocortin receptor 4, sequence (P32245 whole entry): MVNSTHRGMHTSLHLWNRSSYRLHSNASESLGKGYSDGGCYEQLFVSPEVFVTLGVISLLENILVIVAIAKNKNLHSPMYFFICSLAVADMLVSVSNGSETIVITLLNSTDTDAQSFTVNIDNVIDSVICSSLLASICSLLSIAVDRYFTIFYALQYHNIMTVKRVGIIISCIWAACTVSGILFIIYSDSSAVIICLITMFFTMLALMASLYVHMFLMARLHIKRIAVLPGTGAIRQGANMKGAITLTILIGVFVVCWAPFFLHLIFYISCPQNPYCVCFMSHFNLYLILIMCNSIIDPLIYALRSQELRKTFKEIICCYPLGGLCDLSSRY
cGMP-inhibited 3',5'-cyclic phosphodiesterase 3A, sequence (Q14432 whole entry): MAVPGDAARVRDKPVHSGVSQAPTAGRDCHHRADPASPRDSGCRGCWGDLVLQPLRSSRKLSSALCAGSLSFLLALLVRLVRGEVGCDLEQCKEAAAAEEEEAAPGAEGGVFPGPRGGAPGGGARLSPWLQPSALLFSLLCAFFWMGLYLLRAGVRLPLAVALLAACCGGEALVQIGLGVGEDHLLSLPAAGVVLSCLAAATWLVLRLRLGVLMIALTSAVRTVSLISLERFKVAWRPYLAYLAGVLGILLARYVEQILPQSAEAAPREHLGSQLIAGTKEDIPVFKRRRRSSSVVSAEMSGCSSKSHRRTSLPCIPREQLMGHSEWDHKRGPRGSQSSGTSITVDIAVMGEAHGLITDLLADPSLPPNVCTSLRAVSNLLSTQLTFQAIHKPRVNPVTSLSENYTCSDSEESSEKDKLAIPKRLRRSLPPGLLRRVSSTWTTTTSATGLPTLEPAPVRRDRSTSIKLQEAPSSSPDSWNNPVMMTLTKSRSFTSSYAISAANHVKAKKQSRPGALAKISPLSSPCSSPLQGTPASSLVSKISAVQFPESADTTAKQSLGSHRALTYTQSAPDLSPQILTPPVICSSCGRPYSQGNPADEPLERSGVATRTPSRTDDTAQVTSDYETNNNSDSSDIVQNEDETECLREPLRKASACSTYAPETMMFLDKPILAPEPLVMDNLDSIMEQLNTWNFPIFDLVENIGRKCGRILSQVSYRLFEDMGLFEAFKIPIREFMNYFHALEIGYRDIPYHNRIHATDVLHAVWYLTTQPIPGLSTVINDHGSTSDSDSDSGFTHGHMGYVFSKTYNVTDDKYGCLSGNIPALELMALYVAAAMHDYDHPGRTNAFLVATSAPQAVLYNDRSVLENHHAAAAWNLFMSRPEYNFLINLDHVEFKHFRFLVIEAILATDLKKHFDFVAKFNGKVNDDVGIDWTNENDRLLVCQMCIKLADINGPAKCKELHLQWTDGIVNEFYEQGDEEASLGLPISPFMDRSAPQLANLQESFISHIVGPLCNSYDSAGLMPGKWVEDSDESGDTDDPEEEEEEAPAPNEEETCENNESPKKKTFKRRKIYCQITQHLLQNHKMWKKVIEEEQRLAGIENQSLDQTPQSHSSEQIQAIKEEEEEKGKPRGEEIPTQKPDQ
Sodium-dependent noradrenaline transporter, sequence (P23975 whole entry): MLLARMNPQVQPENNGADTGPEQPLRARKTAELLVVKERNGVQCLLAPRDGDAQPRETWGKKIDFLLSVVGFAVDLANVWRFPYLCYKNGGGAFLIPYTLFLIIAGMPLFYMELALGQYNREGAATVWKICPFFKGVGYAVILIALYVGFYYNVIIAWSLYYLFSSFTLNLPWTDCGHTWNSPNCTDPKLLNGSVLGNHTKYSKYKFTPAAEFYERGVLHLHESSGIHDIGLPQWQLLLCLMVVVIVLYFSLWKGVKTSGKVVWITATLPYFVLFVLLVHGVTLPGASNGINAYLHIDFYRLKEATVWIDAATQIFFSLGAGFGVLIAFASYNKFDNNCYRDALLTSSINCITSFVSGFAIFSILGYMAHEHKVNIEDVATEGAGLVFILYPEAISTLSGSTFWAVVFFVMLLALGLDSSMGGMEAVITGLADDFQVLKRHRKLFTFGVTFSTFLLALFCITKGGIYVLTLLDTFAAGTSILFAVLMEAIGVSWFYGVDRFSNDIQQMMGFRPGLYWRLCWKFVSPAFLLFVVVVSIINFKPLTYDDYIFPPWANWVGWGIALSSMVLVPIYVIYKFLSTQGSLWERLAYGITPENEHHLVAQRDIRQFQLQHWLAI
Sodium-dependent dopamine transporter, sequence (Q01959 whole entry): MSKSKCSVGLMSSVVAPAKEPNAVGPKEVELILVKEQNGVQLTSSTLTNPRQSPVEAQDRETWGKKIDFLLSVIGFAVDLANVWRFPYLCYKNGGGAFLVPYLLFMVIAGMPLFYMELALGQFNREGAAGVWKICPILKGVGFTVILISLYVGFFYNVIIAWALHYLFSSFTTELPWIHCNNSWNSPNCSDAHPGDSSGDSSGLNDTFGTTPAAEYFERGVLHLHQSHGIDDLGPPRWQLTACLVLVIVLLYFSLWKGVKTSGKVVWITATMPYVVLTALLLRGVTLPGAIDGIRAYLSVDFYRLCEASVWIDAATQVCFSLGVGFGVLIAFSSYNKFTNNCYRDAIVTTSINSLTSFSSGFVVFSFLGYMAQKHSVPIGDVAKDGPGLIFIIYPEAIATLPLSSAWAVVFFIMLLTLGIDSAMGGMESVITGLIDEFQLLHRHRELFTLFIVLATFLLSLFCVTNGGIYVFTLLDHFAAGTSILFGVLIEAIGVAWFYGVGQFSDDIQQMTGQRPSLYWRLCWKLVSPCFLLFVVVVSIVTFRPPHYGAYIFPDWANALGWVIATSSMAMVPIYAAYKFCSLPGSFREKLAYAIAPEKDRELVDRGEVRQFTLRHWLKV

| SMILES | AC50 [1] | AC50 (Histamine H3 receptor [2]) | AC50 [3] | AC50 (Histamine H3 receptor [4]) | AC50 [5] | AC50 [6] | AC50 (Melanocortin receptor 4) | AC50 [7] | AC50 [8] | AC50 [9] | AC50 (Cannabinoid receptor 1) | AC50 (Histamine H1 receptor) | AC50 (D(1A) dopamine receptor [10]) | AC50 [11] | AC50 [12] | AC50 [13] | AC50 (D(1A) dopamine receptor [14]) |
| --- | --- | --- | --- | --- | --- | --- | --- | --- | --- | --- | --- | --- | --- | --- | --- | --- | --- |
| Cc1cnc(C(=O)NCCc2ccc(S(=O)(=O)NC(=O)NC3CCCCC3)cc2)cn1 [GLIPIZIDE] | > 10 µM | > 10 µM | > 10 µM | > 30 µM | > 10 µM | > 30 µM | > 30 µM | 29.9 µM |  |  |  |  |  |  |  |  |  |
| CCCN[C@H]1CCc2nc(N)sc2C1 [PRAMIPEXOLE] | > 30 µM | > 10 µM | > 10 µM |  |  |  | > 30 µM |  | 13 µM | > 30 µM | > 30 µM | > 10 µM |  |  |  |  |  |
| CC(C)[C@H](N)C(=O)OCC(CO)OCn1cnc2c(=O)nc(N)[nH]c21 (stereo partly drawn) [VALGANCICLOVIR] | > 30 µM | > 30 µM | > 30 µM |  | > 30 µM |  | > 30 µM |  |  |  |  | > 30 µM | > 30 µM |  |  |  |  |
| [H]/N=C(/N)N/C(=N/[H])NCCc1ccccc1 [PHENFORMIN] | > 10 µM | > 10 µM | > 30 µM |  | > 10 µM |  | > 30 µM |  |  |  |  | > 30 µM | > 30 µM |  |  |  |  |
| CC(C(=O)O)c1ccc(-c2ccccc2)c(F)c1 (stereo not drawn) [FLURBIPROFEN] | > 10 µM |  | > 10 µM | > 30 µM | > 10 µM | > 30 µM | > 10 µM | > 30 µM |  |  |  |  | > 10 µM | > 30 µM | > 30 µM | > 30 µM | > 30 µM |
| Cc1cc2cc3c(C)cc(=O)oc3c(C)c2o1 [TRIOXSALEN] | > 10 µM |  | > 10 µM |  | > 10 µM |  | > 10 µM |  |  |  |  |  | > 10 µM |  |  |  |  |
| CCOC(=O)C1=C(C)NC(C)=C(C(=O)OC)C1c1cccc([N+](=O)[O-])c1 (stereo not drawn) [NITRENDIPINE] | > 10 µM | > 10 µM | > 10 µM |  | > 10 µM |  | > 30 µM |  | > 30 µM | > 30 µM | 22 µM |  | > 30 µM |  |  |  |  |
| OC1(c2ccc(Cl)cc2)c2ccccc2C2=NCCN21 (stereo not drawn) [MAZINDOL] | > 30 µM | > 30 µM | > 30 µM |  | > 30 µM |  | > 30 µM |  | > 30 µM | > 30 µM | > 30 µM | 7.5 µM | > 30 µM |  |  |  |  |
| CC(CCc1ccc(O)cc1)NCCc1ccc(O)c(O)c1 (stereo not drawn) [DOBUTAMINE] | 5.07 µM | > 30 µM | > 10 µM |  | > 30 µM |  | > 30 µM |  |  | 0.0054 µM | > 30 µM |  | 13 µM |  |  |  |  |
| CCCCC1C(=O)N(c2ccccc2)N(c2ccccc2)C1=O [PHENYLBUTAZONE] | > 10 µM |  | > 10 µM |  | > 10 µM |  | > 30 µM |  |  |  |  |  | > 10 µM |  |  |  |  |
| Clc1ccc(C(Cn2ccnc2)OCc2ccsc2Cl)c(Cl)c1 (stereo not drawn) [TIOCONAZOLE] | 10.6 µM | > 30 µM | > 30 µM |  | > 30 µM |  | > 30 µM |  | 3.2 µM | > 30 µM |  | > 30 µM | > 30 µM |  |  |  |  |
